Tests used:
Aspc-1 cells = experiment: Cell proliferation study in Aspc-1 cells (Cell Titer Glo); assay type: cell-based; details: Homo sapiens, ASPC1, 72 hours, read-out: IC50, inhibitory effect on cellular proliferation
Protocol: Aspc-1 (Cobioer, CBP60546) cells were grown in RPMI 1640 (Gibco, 61870127) supplemented with 10% fetal bovine serum (Gibco, 10099141), 1% penicillin-streptomycin (Gibco, 15070-063). Aspc-1 cells in exponential growth phase were seeded into 96-well plate (Corning, 3599) at density of 4×10^3/well. Cells were cultured overnight at 37° C. with 5% CO2. On the next day, cells were treated with test compound at various concentrations for 72 hours in 37° C., 5% CO2 incubator (final DMSO concentration was 0.1%). After treatment, 100 μL Cell Tier Glo (Promega, G7573) was added to every well of the cell plates and the plates were incubated at room temperature (RT) for 10 minutes. Cell growth status was measured with Cell Tier Glo (Promega, G7573) following the manufacturer's instructions. The inhibition curve was obtained with GraphPad 7.0 software using four-parameter equation.

KRAS-G12D protein = target: T1, KRAS-G12D protein (Homo sapiens, UniProt P01116, G12D); experiment: KRAS-G12D protein degradation study in Aspc-1 cells (western blot); assay type: cell-based; details: for inhibition at 1 µM / inhibition at 0.1 µM / inhibition at 0.05 µM: ASPC1, 24 h; for inhibition at 1 µM: Aspc-1 cells treated with 1 μM compound; for inhibition at 1 µM / inhibition at 0.1 µM: read-out: Rate of protein degradation (KRAS^G12D); for DC50: Aspc-1 cells, read-out: DC50 of test compound-induced KRAS^G12D protein degradation; for inhibition at 0.05 µM: Aspc-1 cells treated with 50 nM compound, read-out: Rate of degradation (KRAS^G12D)
T1 construct: host or cells: Aspc-1 cells
Outline: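 AsPC-1 cells were treated with compound for 24 h at 37° C (0.1% DMSO final), then lysed; KRAS levels measured by western blot. Degradation % = 1 − (KRAS/GAPDH, compound) ÷ (KRAS/GAPDH, DMSO), ×100; DC50 derived from concentration curves.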

[1] = Aspc-1 cells treated with 0.1 μM compound, 24 hours

T1 sequence (P01116 1-188 isoform P01116-2 G12D): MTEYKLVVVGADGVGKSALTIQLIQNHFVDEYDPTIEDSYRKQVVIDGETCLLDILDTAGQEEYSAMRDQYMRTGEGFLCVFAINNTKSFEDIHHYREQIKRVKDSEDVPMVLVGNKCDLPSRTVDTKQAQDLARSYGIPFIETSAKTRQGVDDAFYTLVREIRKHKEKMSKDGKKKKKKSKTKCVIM

SMILES	IC50 (Aspc-1 cells) [µM]	inhibition at 1 µM (KRAS-G12D protein; 24 hours) [%]	inhibition at 0.1 µM (KRAS-G12D protein; [1]) [%]	DC50 (KRAS-G12D protein) [µM]	Rate of protein degradation (KRAS^G12D) (KRAS-G12D protein; [1])	inhibition at 0.05 µM (KRAS-G12D protein; 24 hours) [%]
CCc1c(F)ccc2cc(O)cc(-c3ncc4c(N5CC6CCC(C5)N6)nc(OCCCN5CCN(C(=O)CCCCC(=O)N[C@H](C(=O)N6C[C@H](O)C[C@H]6C(=O)NCc6ccc(-c7scnc7C)cc6)C(C)(C)C)CC5)nc4c3F)c12 [Compound 26]	1 to 5	–	–	–	–	–
C#Cc1c(F)ccc2cc(O)cc(-c3ncc4c(N5CC6CCC(C5)N6)nc(OCCCN5CCN(C(=O)CCCCC(=O)N[C@H](C(=O)N6C[C@H](O)C[C@H]6C(=O)NCc6ccc(-c7scnc7C)cc6)C(C)(C)C)CC5)nc4c3F)c12 [Compound 27]	0.101 to 1	–	–	–	–	–
C#Cc1c(F)ccc2cc(O)cc(-c3ncc4c(N5CC6CCC(C5)N6)nc(OCCCN5CCN(CCCCCCC(=O)N[C@H](C(=O)N6C[C@H](O)C[C@H]6C(=O)NCc6ccc(-c7scnc7C)cc6)C(C)(C)C)CC5)nc4c3F)c12 [Compound 29]	1 to 5	31 to 60	–	–	–	–
C#Cc1c(F)ccc2cc(O)cc(-c3ncc4c(N5CC6CCC(C5)N6)nc(OCCCN5CCN(CCCCCCCC(=O)N[C@H](C(=O)N6C[C@H](O)C[C@H]6C(=O)NCc6ccc(-c7scnc7C)cc6)C(C)(C)C)CC5)nc4c3F)c12 [Compound 31]	1 to 5	> 60	–	–	–	–
C#Cc1c(F)ccc2cc(O)cc(-c3ncc4c(N5CC6CCC(C5)N6)nc(OCCN5CCN(CCCCCCCC(=O)N[C@H](C(=O)N6C[C@H](O)C[C@H]6C(=O)NCc6ccc(-c7scnc7C)cc6)C(C)(C)C)CC5)nc4c3F)c12 [Compound 32]	1 to 5	11 to 30	–	–	–	–
C#Cc1c(F)ccc2cc(O)cc(-c3ncc4c(N5CC6CCC(C5)N6)nc(OCCCN5CCN(C(=O)CN6CCC(c7ccc8c(C9CCC(=O)NC9=O)nn(C)c8c7)CC6)CC5)nc4c3F)c12 (stereo not shown) [Compound 33]	0.101 to 1	> 60	31 to 60	–	–	–
CCc1c(F)ccc2cc(O)cc(-c3ncc4c(N5CC6CCC(C5)N6)nc(OC[C@@H]5CCCN5C(=O)CCCCCCCC(=O)N[C@H](C(=O)N5C[C@H](O)C[C@H]5C(=O)NCc5ccc(-c6scnc6C)cc5)C(C)(C)C)nc4c3F)c12 [Compound 35]	1 to 5	31 to 60	–	–	–	–
C#Cc1c(F)ccc2cc(O)cc(-c3ncc4c(N5CC6CCC(C5)N6)nc(OC5CCN(CCCCCCCC(=O)N[C@H](C(=O)N6C[C@H](O)C[C@H]6C(=O)NCc6ccc(-c7scnc7C)cc6)C(C)(C)C)CC5)nc4c3F)c12 [Compound 39]	5 to 10	–	–	–	–	–
C#Cc1c(F)ccc2cc(O)cc(-c3ncc4c(N5CC6CCC(C5)N6)nc(OC5CCN(CCCCCCCCCC(=O)N[C@H](C(=O)N6C[C@H](O)C[C@H]6C(=O)NCc6ccc(-c7scnc7C)cc6)C(C)(C)C)CC5)nc4c3F)c12 [Compound 41]	0.101 to 1	> 60	–	–	–	–
CCc1c(F)ccc2cc(O)cc(-c3ncc4c(N5CC6CCC(C5)N6)nc(OC5CCN(CCCCCCCCCC(=O)N[C@H](C(=O)N6C[C@H](O)C[C@H]6C(=O)NCc6ccc(-c7scnc7C)cc6)C(C)(C)C)CC5)nc4c3F)c12 [Compound 42]	1 to 5	–	–	–	–	–
C#Cc1c(F)ccc2cc(O)cc(-c3ncc4c(N5CC6CCC(C5)N6)nc(OC5CCN(CCCCCCCCCCC(=O)N[C@H](C(=O)N6C[C@H](O)C[C@H]6C(=O)NCc6ccc(-c7scnc7C)cc6)C(C)(C)C)CC5)nc4c3F)c12 [Compound 43]	0.101 to 1	> 60	–	–	–	–
CCc1c(F)ccc2cc(O)cc(-c3ncc4c(N5CC6CCC(C5)N6)nc(OC5CCN(CCCCCCCCCCC(=O)N[C@H](C(=O)N6C[C@H](O)C[C@H]6C(=O)NCc6ccc(-c7scnc7C)cc6)C(C)(C)C)CC5)nc4c3F)c12 [Compound 44]	1 to 5	31 to 60	–	–	–	–
C#Cc1c(F)ccc2cc(O)cc(-c3ncc4c(N5CC6CCC(C5)N6)nc(OC5CCN(CCCCCCCCCCC(=O)N[C@H](C(=O)N6C[C@H](O)C[C@H]6C(=O)N[C@@H](C)c6ccc(-c7scnc7C)cc6)C(C)(C)C)CC5)nc4c3F)c12 [Compound 45]	0.101 to 1	> 60	31 to 60	–	–	–
C#Cc1c(F)ccc2cc(O)cc(-c3ncc4c(N5CC6CCC(C5)N6)nc(OC5CCN(CCCCCCCCCCCC(=O)N[C@H](C(=O)N6C[C@H](O)C[C@H]6C(=O)NCc6ccc(-c7scnc7C)cc6)C(C)(C)C)CC5)nc4c3F)c12 [Compound 46]	0.101 to 1	> 60	–	–	–	–
C#Cc1c(F)ccc2cc(O)cc(-c3ncc4c(N5CC6CCC(C5)N6)nc(OC5CCN(CCCCCCCCCCCCCC(=O)N[C@H](C(=O)N6C[C@H](O)C[C@H]6C(=O)NCc6ccc(-c7scnc7C)cc6)C(C)(C)C)CC5)nc4c3F)c12 [Compound 47]	1 to 5	31 to 60	–	–	–	–
C#Cc1c(F)ccc2cc(O)cc(-c3ncc4c(N5CC6CCC(C5)N6)nc(OC5CCCN(CCCCCCCCCCC(=O)N[C@H](C(=O)N6C[C@H](O)C[C@H]6C(=O)N[C@@H](C)c6ccc(-c7scnc7C)cc6)C(C)(C)C)C5)nc4c3F)c12 (stereo partly shown) [Compound 48]	1 to 5	–	–	–	–	–
C#Cc1c(F)ccc2cc(O)cc(-c3ncc4c(N5CC6CCC(C5)N6)nc(OC5CCCN(CCCCCCCCCCC(=O)N6CCC(c7ccc8c(C9CCC(=O)NC9=O)nn(C)c8c7)CC6)C5)nc4c3F)c12 (stereo not shown) [Compound 49]	1 to 5	–	–	–	–	–
C#Cc1c(F)ccc2cc(O)cc(-c3ncc4c(N5CC6CCC(C5)N6)nc(OC5CCN(CCCCCCCCCC(=O)N6CCC(c7ccc8c(C9CCC(=O)NC9=O)nn(C)c8c7)CC6)CC5)nc4c3F)c12 (stereo not shown) [Compound 50]	1 to 5	11 to 30	–	–	–	–
C#Cc1c(F)ccc2cc(O)cc(-c3ncc4c(N5CC6CCC(C5)N6)nc(OC5CCN(CC(=O)N6CCC7(CC6)CC(N6CCC(c8ccc9c(C%10CCC(=O)NC%10=O)nn(C)c9c8)CC6)C7)CC5)nc4c3F)c12 (stereo not shown) [Compound 82]	1 to 5	–	> 60	< 0.01	–	–
C#Cc1c(F)ccc2cc(O)cc(-c3ncc4c(N5CC6CCC(C5)N6)nc(OCC5(CN6CCN(C(=O)CN7CCC(c8ccc9c(C%10CCC(=O)NC%10=O)nn(C)c9c8)CC7)CC6)CC5)nc4c3F)c12 (stereo not shown) [Compound 92]	< 0.1	–	–	< 0.01	+++ (greater than 60%)	–
C#Cc1c(F)ccc2cc(O)cc(-c3ncc4c(N5CC6CCC(C5)N6)nc(OCC5(CN6CCC(C(=O)N7CCC8(CC7)CC(N7CCC(c9ccc%10c(C%11CCC(=O)NC%11=O)nn(C)c%10c9)CC7)C8)CC6)CC5)nc4c3F)c12 (stereo not shown) [Compound 111]	< 0.1	–	> 60	< 0.01	–	–
C#Cc1c(F)ccc2cc(O)cc(-c3ncc4c(N5CC6CCC(C5)N6)nc(OCC5(CN6CCC7(CC6)CC(N6CCC(c8ccc9c(C%10CCC(=O)NC%10=O)nn(C)c9c8)CC6)C7)CC5)nc4c3F)c12 (stereo not shown) [Compound 112]	< 0.1	–	> 60	< 0.01	–	–
C#Cc1c(F)ccc2cc(O)cc(-c3ncc4c(N5CC6CCC(C5)N6)nc(OCC5(CN6CCC(C(=O)N7CCC(N8CCC(c9ccc%10c(C%11CCC(=O)NC%11=O)nn(C)c%10c9)CC8)CC7)CC6)CC5)nc4c3F)c12 (stereo not shown) [Compound 129]	< 0.1	–	–	< 0.01	–	> 60
C#Cc1c(F)ccc2cc(O)cc(-c3ncc4c(N5CC6CCC(C5)N6)nc(OCC5(CN6CCC(CN7CCC(c8ccc9c(C%10CCC(=O)NC%10=O)nn(C)c9c8)CC7)CC6)CC5)nc4c3F)c12 (stereo not shown) [Compound 133]	< 0.1	–	–	< 0.01	–	> 60
C#Cc1c(F)ccc2cc(O)cc(-c3ncc4c(N5CC6CCC(C5)N6)nc(OCC5(CN6CCC(CN7CCN(c8cccc9c8C(=O)N(C8CCC(=O)NC8=O)C9=O)CC7)CC6)CC5)nc4c3F)c12 (stereo not shown) [Compound 135]	< 0.1	–	–	< 0.01	–	31 to 60
C#Cc1c(F)ccc2cc(O)cc(-c3ncc4c(N5CC6CCC(C5)N6)nc(OCC5(CN6CCC(CN7CCC(c8ccc9c(c8)CN(C8CCC(=O)NC8=O)C9=O)CC7)CC6)CC5)nc4c3F)c12 (stereo not shown) [Compound 146]	< 0.1	–	–	< 0.01	–	> 60
C#Cc1c(F)ccc2cc(O)cc(-c3ncc4c(N5CC6CCC(C5)N6)nc(OCC5(CN6CCC(CCN7CCC(c8ccc9c(C%10CCC(=O)NC%10=O)nn(C)c9c8)CC7)CC6)CC5)nc4c3F)c12 (stereo not shown) [Compound 149]	< 0.1	–	–	< 0.01	–	> 60
C#Cc1c(F)ccc2cc(O)cc(-c3ncc4c(N5CC6CCC(C5)N6)nc(OCC5(CN6CCC7(CC6)CC(N6CCN(c8ccc(NC9CCC(=O)NC9=O)cc8F)CC6)C7)CC5)nc4c3F)c12 (stereo not shown) [Compound 150]	< 0.1	–	–	< 0.01	–	> 60
C#Cc1c(F)ccc2cc(O)cc(-c3ncc4c(N5CC6CCC(C5)N6)nc(OCC5(CN6CCC7(CC6)CC(N6CCC(c8ccc9c(c8)C(=O)N(C8CCC(=O)NC8=O)C9=O)CC6)C7)CC5)nc4c3F)c12 (stereo not shown) [Compound 170]	–	–	–	–	–	31 to 60
C#Cc1c(F)ccc2cc(O)cc(-c3ncc4c(N5CC6CCC(C5)N6)nc(OCC5(CN6CCC7(CC6)CC(N6CCC(c8cccc9c8C(=O)N(C8CCC(=O)NC8=O)C9=O)CC6)C7)CC5)nc4c3F)c12 (stereo not shown) [Compound 171]	–	–	–	–	–	≤ 10
